# Measurements: patent publication US20240417410A1, “TRICYCLIC COMPOUNDS FOR THE TREATMENT OF CANCER” (Hoffmann-La Roche Inc., priority 2023, published 2024)
# How the values were obtained:
# [1] = tested on: phosphorylation of ERK, KRAS G12V in SW620; assay: pERK inhibition assay; format: cell-based; settings: Homo sapiens, SW-620, 4 h, SW620 cells
# In short: (§1)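 Cells in RPMI-1640 with 10% FBS were plated overnight (30,000/well H358, 20,000 AGS, 30,000 SW620) and treated 4 h with compounds at 0.5% DMSO. After formaldehyde fixation and methanol permeabilization, pERK was detected by in-cell ELISA with HRP secondary and TMB (OD450); IC50 from 4-parameter fit.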
# [2] = tested on: phosphorylation of ERK, KRAS G12D in AGS cells; assay: pERK inhibition assay; format: cell-based; settings: Homo sapiens, AGS, 4 h
# In short: as §1
# [3] = tested on: phosphorylation of ERK, KRAS G12C in NCI-H358 cells; assay: pERK inhibition assay; format: cell-based; settings: Homo sapiens, NCI-H358, 4 h
# In short: as §1
# [4] = tested on: NCI-H358 cells (KRAS G12C); assay: Cell viability assay (Cell Counting Kit-8, 3-day); format: cell-based, human; settings: Homo sapiens, NCI-H358, 72 h, NCI-H358, 72 hrs incubation
# In short: (§2)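 Cells seeded at 5,000/well (NCI-H358) or 2,000/well (AGS, SW620), treated next day at 0.5% final DMSO for 72 h. Viability read by CCK-8 (OD450 minus OD650) after 2 h; IC50 from 4-parameter sigmoidal fit.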
# [5] = tested on: SW620 cells (KRAS G12V); assay: Cell viability assay (Cell Counting Kit-8, 3-day); format: cell-based, human; settings: Homo sapiens, SW-620; SW620, 72 hrs incubation
# In short: as §2
# [6] = tested on: AGS cells (KRAS G12D); assay: Cell viability assay (Cell Counting Kit-8, 3-day); format: cell-based, human; settings: Homo sapiens, 72 h, 72 hrs incubation
# In short: as §2
# [7] = molecular target: KRAS G12C-BRAF complex (Homo sapiens (Human), UniProt P01116+P62937, G12C); assay: KRAS-BRAF with CYPA (500 nM) interaction assay (TR-FRET, Example 136); format: biochemical; settings: KRAS G12C-BRAF disruption
# KRAS G12C-BRAF complex, sequence (P01116-2 other isoform, or with tags, fused parts or gaps G12C): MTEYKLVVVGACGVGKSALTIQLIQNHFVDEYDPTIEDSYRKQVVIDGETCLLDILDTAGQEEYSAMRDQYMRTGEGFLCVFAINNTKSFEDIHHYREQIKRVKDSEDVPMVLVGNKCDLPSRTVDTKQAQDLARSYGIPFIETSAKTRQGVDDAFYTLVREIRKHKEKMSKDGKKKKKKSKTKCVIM
# KRAS G12C-BRAF complex, sequence (P62937 whole entry): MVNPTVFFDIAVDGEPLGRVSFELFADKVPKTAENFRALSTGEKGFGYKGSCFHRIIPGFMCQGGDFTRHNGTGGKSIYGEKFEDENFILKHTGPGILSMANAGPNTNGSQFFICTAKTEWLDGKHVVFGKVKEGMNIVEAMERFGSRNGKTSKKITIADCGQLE
SMILES,IC50 [1],IC50 [2],IC50 [3],IC50 [4],IC50 [5],IC50 [6],IC50 [7]
"CO[C@@H](C)c1ncc(N2CCN(C)CC2)cc1-c1c2c3cc(cc4c3n1CCO4)-c1csc(n1)C[C@H](NC(=O)[C@H]1C[C@@H]1c1cncnc1)C(=O)N1CCC[C@H](N1)C(=O)OCC(C)(C)C2 (atropisomer, axis not shown; (M)) [Example 93, (1S,2S)-N-[(7S,13S)-(20M)-20-[2-[(1S)-1-methoxyethyl]-5-(4-methylpiperazin-1-yl)-3-pyridyl]-17,17-dimethyl-8,14-dioxo-15,24-dioxa-4-thia-9,21,30,31-tetrazahexacyclo[23.3.1.1^2,5.1^9,13.0^19,27.0^21,26]hentriaconta-1 (28),2,5 (31), 19,25 (29),26-hexaen-7-yl]-2-pyrimidin-5-yl-cyclopropanecarboxamide]",1.2 nM,3.5 nM,1.2 nM,3 nM,1 nM,5 nM,14.8 nM
"CO[C@@H](C)c1ncc(N2CCOCC2)cc1-c1c2c3cc(cc4c3n1CC(F)(F)C4)-c1csc(n1)C[C@H](NC(=O)[C@H]1[C@H](C)[C@@H]1C)C(=O)N1CCC[C@H](N1)C(=O)OCC(C)(C)C2 (atropisomer, axis not shown; (M)) [Example 76, (1r,2S,3R)-N-[(7S,13S)-23,23-difluoro-(20M)-20-[2-[(1S)-1-methoxyethyl]-5-morpholino-3-pyridyl]-17,17-dimethyl-8,14-dioxo-15-oxa-4-thia-9,21,30,31-tetrazahexacyclo[23.3.1.1^2,5.1^9,13.0^19,27.0^21,26]hentriaconta-1 (28),2,5 (31), 19,25 (29),26-hexaen-7-yl]-2,3-dimethyl-cyclopropanecarboxamide]",0.2 nM,3.9 nM,0.7 nM,2.1 nM,0.3 nM,4.9 nM,9.1 nM
"CO[C@@H](C)c1ncc(N2CCN3CCCC[C@@H]3C2)cc1-c1c2c3cc(cc4c3n1CCC4)-c1csc(n1)C[C@H](NC(=O)[C@H]1[C@H](C)[C@@H]1C)C(=O)N1CCC[C@H](N1)C(=O)OCC(C)(C)C2 (atropisomer, axis not shown; (M)) [Example 101, (1r,2S,3R)-N-[(7S,13S)-(20M)-20-[5-[(9αR)-1,3,4,6,7,8,9,9a-octahydropyrido[1,2-a]pyrazin-2-yl]-2-[(1S)-1-methoxyethyl]-3-pyridyl]-17,17-dimethyl-8,14-dioxo-15-oxa-4-thia-9,21,30,31-tetrazahexacyclo[23.3.1.1^2,5.1^9,13.0^19,27.0^21,26]hentriaconta-1 (28),2,5 (31),19,25 (29),26-hexaen-7-yl]-2,3-dimethyl-cyclopropanecarboxamide]",0.2 nM,2.6 nM,0.9 nM,1.8 nM,0.3 nM,6.9 nM,5.4 nM
"CO[C@@H](C)c1ncc(N2CCN(CC(F)(F)F)CC2)cc1-c1c2c3cc(cc4c3n1CCC4)-c1csc(n1)C[C@H](NC(=O)[C@H]1[C@@H]3COC[C@@H]31)C(=O)N1CCC[C@H](N1)C(=O)OCC(C)(C)C2 (atropisomer, axis not shown; (M)) [Example 13, (1S,5R,6r)-N-[(7S,13S)-(20M)-20-[2-[(1S)-1-methoxyethyl]-5-[4-(2,2,2-trifluoroethyl)piperazin-1-yl]-3-pyridyl]-17,17-dimethyl-8,14-dioxo-15-oxa-4-thia-9,21,30,31-tetrazahexacyclo[23.3.1.1^2,5.1^9,13.0^19,27.0^21,26]hentriaconta-1 (28),2,5 (31),19,25 (29),26-hexaen-7-yl]-3-oxabicyclo[3.1.0]hexane-6-carboxamide]",1.5 nM,10.8 nM,3 nM,6.4 nM,0.7 nM,23 nM,1.5 nM
"COCCN1CCN(c2cnc([C@H](C)OC)c(-c3c4c5cc(cc6c5n3CCC6)-c3csc(n3)C[C@H](NC(=O)[C@H]3[C@H](C)[C@@H]3C)C(=O)N3CCC[C@H](N3)C(=O)OCC(C)(C)C4)c2)CC1 (atropisomer, axis not shown; (M)) [Example 115, (1r,2S,3R)-N-[(7S,13S)-(20M)-20-[2-[(1S)-1-methoxyethyl]-5-[4-(2-methoxyethyl)piperazin-1-yl]-3-pyridyl]-17,17-dimethyl-8,14-dioxo-15-oxa-4-thia-9,21,30,31-tetrazahexacyclo[23.3.1.1^2,5.1^9,13.0^19,27.0^21,26]hentriaconta-1 (28),2,5 (31), 19,25 (29),26-hexaen-7-yl]-2,3-dimethyl-cyclopropanecarboxamide]",0.2 nM,2.6 nM,0.8 nM,1.7 nM,0.4 nM,3.4 nM,18.5 nM
"CO[C@@H](C)c1ncc(N2CCN(CC(F)(F)F)CC2)cc1-c1c2c3cc(cc4c3n1CCC4)-c1csc(n1)C[C@H](NC(=O)[C@H]1C[C@@H]1c1cccnc1)C(=O)N1CCC[C@H](N1)C(=O)OCC(C)(C)C2 (atropisomer, axis not shown; (M)) [Example 90, (1S,2S)-N-[(7S,13S)-(20M)-20-[2-[(1S)-1-methoxyethyl]-5-[4-(2,2,2-trifluoroethyl)piperazin-1-yl]-3-pyridyl]-17,17-dimethyl-8,14-dioxo-15-oxa-4-thia-9,21,30,31-tetrazahexacyclo[23.3.1.1^2,5.1^9,13.0^19,27.0^21,26]hentriaconta-1 (28),2,5 (31), 19,25 (29),26-hexaen-7-yl]-2-(3-pyridyl)cyclopropanecarboxamide]",0.6 nM,9.4 nM,1.7 nM,3.3 nM,0.8 nM,16.8 nM,6.4 nM
"CO[C@@H](C)c1ncc(N2CCOCC2)cc1-c1c2c3cc(cc4c3n1CCO4)-c1csc(n1)C[C@H](NC(=O)[C@H]1[C@@H]3COC[C@@H]31)C(=O)N1CCC[C@H](N1)C(=O)OCC(C)(C)C2 (atropisomer, axis not shown; (M)) [Example 10, (1S,5R,6r)-N-[(7S,13S)-(20M)-20-[2-[(1S)-1-methoxyethyl]-5-morpholino-3-pyridyl]-17,17-dimethyl-8,14-dioxo-15,24-dioxa-4-thia-9,21,30,31-tetrazahexacyclo[23.3.1.1^2,5.1^9,13.0^19,27.0^21,26]hentriaconta-1 (28),2,5 (31), 19,25 (29),26-hexaen-7-yl]-3-oxabicyclo[3.1.0]hexane-6-carboxamide]",1.2 nM,1.4 nM,3.3 nM,2.2 nM,< 0.6 nM,4.6 nM,5.9 nM
"CO[C@@H](C)c1ncc(N2CCN(CCOC3CCOC3)CC2)cc1-c1c2c3cc(cc4c3n1CCC4)-c1csc(n1)C[C@H](NC(=O)[C@H]1[C@H](C)[C@@H]1C)C(=O)N1CCC[C@H](N1)C(=O)OCC(C)(C)C2 (stereo partly drawn) [Example 122, (1r,2R,3S)-N-[(7S,13S)-(20M)-20-[2-[(1S)-1-methoxyethyl]-5-[4-(2-tetrahydrofuran-3-yloxyethyl)piperazin-1-yl]-3-pyridyl]-17,17-dimethyl-8,14-dioxo-15-oxa-4-thia-9,21,30,31-tetrazahexacyclo[23.3.1.1^2,5.1^9,13.0^19,27.0^21,26]hentriaconta-1 (28),2,5 (31), 19,25 (29),26-hexaen-7-yl]-2,3-dimethyl-cyclopropanecarboxamide]",0.2 nM,3.5 nM,0.6 nM,1.8 nM,0.5 nM,3.4 nM,15.1 nM
"CO[C@@H](C)c1ncc(N2CCN(C)CC2)cc1-c1c2c3cc(cc4c3n1CCO4)-c1csc(n1)C[C@H](NC(=O)[C@H]1C[C@@H]1C(F)F)C(=O)N1CCC[C@H](N1)C(=O)OCC(C)(C)C2 (atropisomer, axis not shown; (M)) [Example 34, (1S,2S)-2-(difluoromethyl)-N-[(7S,13S)-(20M)-20-[2-[(1S)-1-methoxyethyl]-5-(4-methylpiperazin-1-yl)-3-pyridyl]-17,17-dimethyl-8,14-dioxo-15,24-dioxa-4-thia-9,21,30,31-tetrazahexacyclo[23.3.1.1^2,5.1^9,13.0^19,27.0^21,26]hentriaconta-1 (28),2,5 (31), 19,25 (29),26-hexaen-7-yl]cyclopropanecarboxamide]",< 0.6 nM,4.6 nM,< 0.6 nM,4.7 nM,1.1 nM,12.4 nM,31.8 nM
